Earlier results in patent US20120046286A1, “Novel Compounds” (priority 2009, published 2012).

Key:
neutrophils [1] = test system: neutrophils
neutrophils [2] = conditions: treatment of neutrophils; Thelen et al. 1994

SMILES | effect on neutrophil migration and superoxide release (neutrophils [1]) | effect on fMLP-induced respiratory burst response (neutrophils [2])
O=c1cc(N2CCOCC2)oc2c(-c3ccccc3)cccc12 [LY294002] | block neutrophil migration and superoxide release | 
COC[C@H]1OC(=O)c2coc3c2[C@@]1(C)C1=C(C3=O)[C@@H]2CCC(=O)[C@@]2(C)C[C@H]1OC(C)=O [wortmannin] | block neutrophil migration and superoxide release | prevents the fMLP-induced respiratory burst response
